Values joined by “and” are separate entries in the source; they are usually repeats but may differ in a detail not shown here. Identical values can stand only once.
Assays:
[1] = Plasma PK of enzalutamide and N-desmethyl enzalutamide in men with mCRPC
[2] = Urine PK of digoxin in men with mCRPC; type: in vivo, human; conditions: for CL renal: male, human, oral, CLR; for CL renal / Aelast%, GLSM / Aelast%, Mean ± SD / Aelast%, Median (range) / Aelast, Median (range): urine; for Aelast, Mean ± SD: urine up to 24 h
Safety and tolerability = type: in vivo, human; conditions: for TEAEs considered related to the drug: single dose in cocktail, days 1 and 64
[3] = Plasma PK of digoxin and rosuvastatin; conditions: for AUC(0-inf) / AUC(0-t) / Cmax / Vd/F / half-life: male, human, in vivo; for AUC(0-inf): AUCinf; for AUC(0-t): AUClast; for Vd/F: Vz/F; for half-life: t½
P-gp [4] = assay: Effect of enzalutamide on PK of digoxin; type: in vivo, human
BCRP [5] = assay: Effect of enzalutamide on PK of rosuvastatin; type: in vivo, human
CYP3A4 [6] = conditions: previous clinical DDI studies, cited from earlier work
CYP3A4 [7] = conditions: human hepatocytes; ref data on file; cited from earlier work
CYP2C9 = conditions: previous clinical DDI studies, cited from earlier work
clinical = conditions: male, human, plasma
CYP2C19 = conditions: previous clinical DDI studies, cited from earlier work
BCRP [8] = conditions: co-administered with rifampin; cited from earlier work
P-gp [9] = conditions: co-administration with rifampin; cited from earlier work
[10] = Enzalutamide + cocktail (day 64)
[11] = GLSM, plasma, Enzalutamide + cocktail (day 64)
[12] = Mean ± SD, plasma, Cocktail (day 1)
[13] = Median (range), plasma, Cocktail (day 1)
[14] = Mean ± SD, plasma, Enzalutamide + cocktail (day 64)
[15] = Median (range), plasma, Enzalutamide + cocktail (day 64)
[16] = plasma, Enzalutamide + cocktail (day 64)
[17] = digoxin co-administered with enzalutamide versus taken alone
[18] = digoxin plasma, day 64 vs day 1
[19] = following enzalutamide, 2 patients
[20] = rosuvastatin co-administered with enzalutamide versus taken alone
[21] = rosuvastatin plasma, day 64 vs day 1

CC1(C)C(=O)N(c2ccc(C#N)c(C(F)(F)F)c2)C(=S)N1c1ccc(C(N)=O)c(F)c1 [N‐desmethyl enzalutamide]
Mean Ctrough ([1]; day 35): 9100 ng/mL | AUCtau, Mean ± SD ([1]; day 64): 259000 ± 37900 ng·h/mL | AUCtau, Median (range) ([1]; day 64): 251 (189–327) h·µg/ml | Cmax, Median (range) ([1]; day 64): 12.1 (8.9–15.3) µg/ml | Ctrough, Mean ± SD ([1]; day 64): 11600 ng/mL and 11600 ± 1900 ng/mL | Ctrough, Median (range) ([1]; day 64): 11.7 (7.7–15.0) µg/ml | Cmax, Mean ± SD ([1]; day 64, enzalutamide 160 mg oral once daily from day 8): 12300 ± 1700 ng/mL | Mean Ctrough ([1]; day 68): 11900 ng/mL | Mean Ctrough ([1]; day 71): 12100 ng/mL

C[C@H]1O[C@@H](O[C@H]2[C@@H](O)C[C@H](O[C@H]3[C@@H](O)C[C@H](O[C@H]4CC[C@@]5(C)[C@H](CC[C@@H]6[C@@H]5C[C@@H](O)[C@]5(C)[C@@H](C7=CC(=O)OC7)CC[C@]65O)C4)O[C@@H]3C)O[C@@H]2C)C[C@H](O)[C@@H]1O [digoxin]
CL renal ([2]; Mean ± SD, Cocktail (day 1)): 105 mL/min | CL renal ([2]; Mean ± SD, Enzalutamide + cocktail (day 64)): 81.7 mL/min | CL renal ([2]; Median (range), Cocktail (day 1)): 100 mL/min | CL renal ([2]; Median (range), Enzalutamide + cocktail (day 64)): 78.3 mL/min | Aelast, Mean ± SD ([2]; Cocktail (day 1)): 0.05 ± 0.01 mg | Aelast, Mean ± SD [2, 10]: 0.05 ± 0.01 mg | Aelast%, GLSM ([2]; Cocktail (day 1)): 19.4% | Aelast%, Mean ± SD ([2]; Cocktail (day 1)): 20.1 ± 5.1% | Aelast%, Median (range) ([2]; Cocktail (day 1)): 21.3 (9.2–31.5) % | Aelast, Median (range) ([2]; Cocktail (day 1)): 0.05 (0.02–0.08) mg | Aelast%, GLSM [2, 10]: 17.3% | Aelast%, Mean ± SD [2, 10]: 18.2 ± 5.4% | Aelast%, Median (range) [2, 10]: 17.9 (6.6–26.5) % | Aelast, Median (range) [2, 10]: 0.04 (0.02–0.07) mg | TEAEs considered related to the drug (Safety and tolerability): no TEAEs were considered to be related | digoxin plasma concentrations, all patients ([3]; cocktail day 1, 0.5–168 h postdose, above LLOQ): > 10 pg/mL | AUC(0-inf) ([3]; GLSM, plasma, Cocktail (day 1)): 24.1 ng·h/mL | AUC(0-inf) [3, 11]: 32.1 ng·h/mL | AUC(0-inf) [3, 12]: 24.6 ng·h/mL | AUC(0-inf) [3, 13]: 25.1 ng·h/mL | AUC(0-t) ([3]; GLSM, plasma, Cocktail (day 1)): 21.7 ng·h/mL | AUC(0-t) [3, 11]: 28 ng·h/mL | AUC(0-t) [3, 12]: 22.1 ng·h/mL | AUC(0-t) [3, 14]: 28.7 ng·h/mL | AUC(0-t) [3, 13]: 22.7 ng·h/mL | AUC(0-t) [3, 15]: 27.1 ng·h/mL | Cmax [3, 13]: 1.47 ng/mL | Cmax [3, 15]: 1.62 ng/mL | Vd/F [3, 12]: 785 ± 138 L | Vd/F [3, 14]: 710 ± 114 L | Vd/F [3, 13]: 786 L | Vd/F [3, 15]: 727 L | half-life [3, 12]: 52.3 ± 8.2 h | half-life [3, 14]: 63.5 ± 9.5 h | half-life [3, 13]: 50.5 h | CL/F, Mean ± SD ([3]; plasma, Cocktail (day 1)): 10.6 ± 2.3 L/h | CL/F, Median (range) ([3]; plasma, Cocktail (day 1)): 9.9 (7.4–16.3) L/h | tmax, Median (range) ([3]; plasma, Cocktail (day 1)): 1.50 (0.50–3.00) h | CL/F, Mean ± SD [3, 16]: 7.9 ± 1.7 L/h | CL/F, Median (range) [3, 16]: 7.8 (4.6–11.6) L/h | tmax, Median (range) [3, 16]: 1.00 (0.50–2.50) h | Cmax, Mean ± SD ([3]; plasma, Enzalutamide + cocktail (day 64), enzalutamide 160 mg once daily): 1.69 ± 0.384 ng/mL | increase in AUCinf (GLSM ratio) (P-gp [4]; [17]): 33% | increase in AUClast (GLSM ratio) (P-gp [4]; [17]): 29% | increase in Cmax (GLSM ratio) (P-gp [4]; [17]): 17% | AUCinf, GLSM ratio (95% CI) (P-gp [4]; [18]): 133.5 (125.3–142.2) | AUClast, GLSM ratio (95% CI) (P-gp [4]; [18]): 129.1 (121.0–137.7) | Cmax, GLSM ratio (95% CI) (P-gp [4]; digoxin plasma, enzalutamide + cocktail (day 64) vs cocktail (day 1)): 117.0 (105.8–129.3) | decrease in Aelast% (P-gp [4]; digoxin urine, co-administered with enzalutamide): 10% | Aelast%, GLSM ratio (95% CI) (P-gp [4]; digoxin urine, day 64 vs day 1): 89.6 (79.1–101.6) | decrease in CLR (P-gp [4]; digoxin, co-administered with enzalutamide): 22%

CNC(=O)c1ccc(N2C(=S)N(c3ccc(C#N)c(C(F)(F)F)c3)C(=O)C2(C)C)cc1F [enzalutamide]
effect of enzalutamide on the PK of rosuvastatin (class) (BCRP [5]; 90% CI for Cmax and AUCinf GLSM ratios within 80–125%): no effect | tolerability (Safety and tolerability; enzalutamide alone and in combination with digoxin and rosuvastatin): well tolerated | patients with decreased white blood cell count (TEAE) (Safety and tolerability; [19]): 8.3% | patients with dizziness (TEAE) (Safety and tolerability; [19]): 8.3% | patients with urinary tract infection (TEAE) (Safety and tolerability; [19]): 8.3% | patients with TEAEs considered potentially related to enzalutamide (Safety and tolerability; one eosinophilia, two decreased white blood cell count, three patients): 12.5% | deaths (Safety and tolerability; whole study): no deaths | serious TEAEs (Safety and tolerability; whole study): No serious TEAEs were reported | severity of all TEAEs (Safety and tolerability; whole study): mild | inducer class (CYP3A4 [6]; CYP3A4): strong inducer | reduction of exposure of probe substrate (CYP3A4 [6]; CYP3A4 probe substrate): 86% | CYP3A4 mRNA induction, % of positive control (CYP3A4 [7]): 95.9% | increase of CYP3A4 enzyme activity (CYP3A4 [7]): up to 3.88 fold | increase of CYP3A4 mRNA levels (CYP3A4 [7]): ≤ 6.90 fold | inducer class (CYP2C9; CYP2C9): moderate inducer | reduction of exposure of probe substrate (CYP2C9; CYP2C9 probe substrate): 56% | AUC (clinical; oral): 333000 ± 57800 ng·h/mL | Cmax (clinical; oral): 17200 ng/mL | Cmax (clinical; po, 160 mg): 17100 ± 2800 ng/mL | effect of enzalutamide on P-gp inhibition (class) (P-gp [4]; GLSM ratios of digoxin less than two-fold, enzalutamide 160 mg once daily): mild | Mean Ctrough ([1]; day 35): 14100 ng/mL | AUCtau, Median (range) ([1]; day 64): 344 (210–435) h·µg/ml | Ctrough, Mean ± SD ([1]; day 64): 13900 ng/mL | Ctrough, Median (range) ([1]; day 64): 14.1 (8.3–19.4) µg/ml | Ctrough, Mean ± SD ([1]; day 64, listed as Enzalutamide): 13900 ± 2900 ng/mL | Mean Ctrough ([1]; day 68): 14000 ng/mL | Mean Ctrough ([1]; day 71): 14000 ng/mL | inducer class (CYP2C19; CYP2C19): moderate inducer | reduction of exposure of probe substrate (CYP2C19; CYP2C19 probe substrate): 70%

CO[C@H]1/C=C/O[C@@]2(C)Oc3c(C)c(O)c4c(O)c(c(/C=N/N5CCN(C)CC5)c(O)c4c3C2=O)NC(=O)/C(C)=C\C=C\[C@H](C)[C@H](O)[C@@H](C)[C@@H](O)[C@@H](C)[C@H](OC(C)=O)[C@@H]1C [rifampin]
decrease in Cmax of rosuvastatin (BCRP [8]): 30% | decrease of AUC of digoxin (P-gp [9]): 30% | decrease of Cmax of digoxin (P-gp [9]): 58%

CC(C)c1nc(N(C)S(C)(=O)=O)nc(-c2ccc(F)cc2)c1/C=C/[C@@H](O)C[C@@H](O)CC(=O)O [rosuvastatin]
increase in Cmax (GLSM ratio) (BCRP [5]; [20]): 6% | reduction in AUClast (GLSM ratio) (BCRP [5]; [20]): 14% | AUCinf, GLSM ratio (95% CI) (BCRP [5]; [21]): 89.3 (80.0–99.8) | AUClast, GLSM ratio (95% CI) (BCRP [5]; [21]): 86.1 (77.5–95.7) | Cmax, GLSM ratio (95% CI) (BCRP [5]; rosuvastatin plasma, enzalutamide + cocktail (day 64) vs cocktail (day 1)): 106.3 (94.7–119.3) | TEAEs considered related to the drug (Safety and tolerability): no TEAEs were considered to be related | AUC(0-inf) ([3]; GLSM, plasma, Cocktail (day 1)): 62.7 ng·h/mL | AUC(0-inf) [3, 11]: 56 ng·h/mL | AUC(0-inf) [3, 12]: 69.5 ng·h/mL | AUC(0-inf) [3, 14]: 59.7 ng·h/mL | AUC(0-inf) [3, 13]: 68.6 ng·h/mL | AUC(0-inf) [3, 15]: 55.5 ng·h/mL | AUC(0-t) ([3]; GLSM, plasma, Cocktail (day 1)): 56.7 ng·h/mL | AUC(0-t) [3, 11]: 48.8 ng·h/mL | AUC(0-t) [3, 12]: 61.8 ng·h/mL | AUC(0-t) [3, 14]: 52.8 ng·h/mL | AUC(0-t) [3, 13]: 56.1 ng·h/mL | AUC(0-t) [3, 15]: 48.4 ng·h/mL | Cmax ([3]; GLSM, plasma, Cocktail (day 1)): 4.3 ng/mL | Cmax [3, 13]: 4.71 ng/mL | Cmax [3, 15]: 4.49 ng/mL | Vd/F [3, 12]: 5400 ± 3950 L | Vd/F [3, 14]: 5420 ± 3510 L | Vd/F [3, 13]: 4310 L | Vd/F [3, 15]: 3490 L | half-life [3, 12]: 22.5 ± 11.4 h | CL/F, Mean ± SD ([3]; plasma, Cocktail (day 1)): 163 ± 68.5 L/h | CL/F, Median (range) ([3]; plasma, Cocktail (day 1)): 146 (94.5–366) L/h | tmax, Median (range) ([3]; plasma, Cocktail (day 1)): 4.0 (1.0–6.0) h | CL/F, Mean ± SD [3, 16]: 186 ± 62.4 L/h | CL/F, Median (range) [3, 16]: 180 (91.6–314) L/h | tmax, Median (range) [3, 16]: 3.0 (0.5–6.0) h
